Several values for one entry are separate records, joined by “and”; a condition that tells them apart may be missing. Equal values may be shown once. Entries after “also recorded” stand apart in the source; their conditions may differ. Read-outs that look alike come from different tables or passages of the source.
Key:
[1] = Stability on incubation in human plasma at 37°C; format: in vitro ADME; details: up to 3 h, 1 μg/ml
Experimental: The test tube containing the drug concentration was incubated in a constant temperature water bath at 37°C. Each sample was obtained at 0, 0.5, 1.0, 1.5, 2.0, and 3.0 h, and the drug concentration was measured.
Fifty microliters of the above solution was accurately drawn at different incubation time points, and 155 μl of ice-cold methanol (1% formic acid) and 5 μl of IS solution were added. The mixture was vortexed for 60 s and centrifuged at 14,000 rpm for 10 min. Then, 165 μl of supernatant was transferred to a new tube and evaporated to dryness under a gentle stream of nitrogen at room temperature. The residue was dissolved in 50 μl 20% methanol (1% formic acid), vortexed for 60 s and centrifuged at 14,000 rpm for 10 min. An appropriate amount of the supernatant was placed into the sample vial, and analyzed. Each experiment was repeated 3 times.
The plasma sample concentration was 1 μg/ml, and the concentration of the other samples was 100 μg/ml.
All samples were analyzed using the established LC‒MS/MS method, and MultiQuant 3.0 software was used for data processing. The glytrexate concentration at each time point was calculated, the remaining percentage was calculated, and the concentration change trend was analyzed.

KB tumor cells = test system: KB tumor cells; design: method as in Xing et al., 2017; details: ref Xing et al., 2017, read-out: IC50, inhibitory action on KB tumor cells; cited from earlier work
[2] = Pharmacokinetics and bioavailability in rats after single oral and intravenous doses; format: in vivo, Sprague-Dawley rats; details: rat; for AUC(0-inf) / Cmax / half-life / AUC / MRT last / bioavailability / CL/F / Tmax: male, Sprague-Dawley, plasma; for AUC: read-out: AUC0-tn; for MRT last: read-out: MRT0-t; for CL/F / Tmax: po
Experimental: Pharmacokinetic and bioavailability studies were carried out in twenty-four male Sprague–Dawley rats. The rats were randomly divided into four groups (n = 6). All of them were fasted for 12 h before administration and were allowed to drink freely. Approximately 300 μl of blood was collected from the posterior canthus venous plexus of each rat into heparinized tubes at 0.1, 0.16, 0.25, 0.5, 1, 2, 4, 8, 12, and 24 h after a single oral administration (i.g.) (12.5, 25, and 50 mg/kg) or at 0.03 h, 0.08, 0.25, 0.5, 1, 2, 4, 6, 8, 12, and 24 h after a single i.v. injection (2 mg/kg). The blood samples were processed to obtain the plasma via centrifugation at 3500 rpm for 10 min and then stored at −80°C until LC–MS/MS analysis.
The plasma samples obtained were processed using the method described in Section 2.4 and then analyzed using the established LC–MS/MS method. The data were processed using MultiQuant 3.0 software. According to the results of the blood drug concentration measurement in rats, the noncompartmental model in DAS 3.2.8 software was used to calculate the corresponding pharmacokinetic parameters, including peak time (Tmax), elimination half-life (T1/2), area under the drug-time curve (AUC0-t, AUC0-∞), maximum plasma concentration (Cmax), apparent volume of distribution (Vz/F), clearance rate (Clz/F), and average residence time (MRT0-t). GraphPad Prism 8 software was used to construct the trend chart of the changes in various parameters in plasma samples based on the measurements to analyze the possible pharmacokinetic characteristics of glytrexate.
If glytrexate has linear kinetic characteristics, the absolute bioavailability can be calculated according to the bioavailability formula, Fabs=(AUCT·Div)/(AUCiv·DT) × 100%, where AUC represents the area under the plasma concentration-time curve. The subscripts T and iv represent oral and intravenous injection, respectively, and D represents the administered dose. The data obtained in the study are expressed as the mean values plus or minus the standard deviation.

[3] = Storage stability of glytrexate in rat plasma (short-term, autosampler, freeze-thaw, long-term); format: in vitro ADME
Experimental: For short-term and long-term stability, plasma samples (LQC and HQC) were kept at room temperature for 8 h and at −20°C for 14 consecutive days, respectively. To evaluate the freeze-thaw stability, plasma samples (n = 6) were investigated through three cycles from −20°C to 25°C, and the stability of the postpreparative samples after 8 h was evaluated in autosampler vials at 4°C. The results were evaluated by calculating the peak area ratio (glytrexate/IS) of the stability samples. If glytrexate is stable in rat plasma, the accuracy (RE) should be within ±15% and the precision (RSD) < 15%.

[4] = 4°C for 8 h in rat plasma, spiked 5 ng/ml
[5] = 4°C for 8 h in rat plasma, spiked 1600 ng/ml
[6] = room temperature for 8 h in rat plasma, spiked 5 ng/ml
[7] = room temperature for 8 h in rat plasma, spiked 1600 ng/ml
[8] = three freeze‒thaw cycles in rat plasma, spiked 5 ng/ml
[9] = three freeze‒thaw cycles in rat plasma, spiked 1600 ng/ml
[10] = −20°C for 14 days in rat plasma, spiked 5 ng/ml
[11] = −20°C for 14 days in rat plasma, spiked 1600 ng/ml

## Nc1nc2[nH]c(CC(=O)NCC(=O)N[C@@H](CCC(=O)O)C(=O)O)cc2c(=O)[nH]1 [glytrexate, (S)-2-{2-[2-(2-amino-4-oxo-4,7-dihydro-3H-pyrrolo [2,3-d]pyrimidin-6-yl)-acetylamino]-acetylamino}-pentanedioic acid]
[1]
  stability in human plasma compared with other matrices (in words): more stable in human plasma than in human liver microsomes and artificial gastrointestinal fluid; also recorded: more stable in human plasma than in rat plasma and in human liver microsomes; also recorded: greatest amount of remaining glytrexate was found in human plasma
KB tumor cells
  IC50: 0.078 nM
[2]; intravenous 2 mg/kg
  AUC(0-inf): 10200 ± 1710 ng·h/mL
  Cmax: 17600 ± 767 ng/mL
  half-life: 2.78 ± 0.26 h
  AUC: 10200 ± 1710 ng·h/mL
  MRT last: 0.91 ± 0.05 h
  Cl/F: 3.33 ± 0.5 mL/min/kg
  V/F: 0.80 ± 0.15 L/kg
[2]; oral 12.5 mg/kg
  AUC(0-inf): 370 ± 26 ng·h/mL
  Cmax: 107 ± 12.1 ng/mL
  half-life: 2.15 ± 0.16 h
  AUC: 362 ± 24.6 ng·h/mL
  MRT last: 3.12 ± 0.14 h
[2]; oral 12.5 mg/kg vs intravenous 2 mg/kg, read-out: F (bioavailability)
  bioavailability: 0.57 ± 0.08%
[2]; oral 25 mg/kg
  AUC(0-inf): 750 ± 30.2 ng·h/mL
  Cmax: 496 ± 19.8 ng/mL
  half-life: 2.25 ± 0.093 h
  AUC: 750 ± 30.2 ng·h/mL
  MRT last: 2.95 ± 0.16 h
[2]; oral 25 mg/kg vs intravenous 2 mg/kg, read-out: F (bioavailability)
  bioavailability: 0.59 ± 0.06%
[2]; oral 50 mg/kg
  AUC(0-inf): 2960 ± 190 ng·h/mL
  Cmax: 1290 ± 109 ng/mL
  half-life: 2.66 ± 0.15 h
  AUC: 2960 ± 189 ng·h/mL
  MRT last: 3.16 ± 0.096 h
[2]; oral 50 mg/kg vs intravenous 2 mg/kg, read-out: F (bioavailability)
  bioavailability: 1.15 ± 0.07%
[2]; oral dose range 12.5–50 mg/kg, read-out: oral bioavailability
  bioavailability: 0.57 to 1.15%
[2]; 12.5 mg/kg, oral 12.5 mg/kg
  CL/F: 565 mL/min/kg
[2]; 12.5 mg/kg, oral 12.5 mg/kg, read-out: Tmax
  Tmax: 0.5 h
[2]; 25 mg/kg, oral 25 mg/kg
  CL/F: 556 mL/min/kg
[2]; 25 mg/kg, oral 25 mg/kg, read-out: Tmax
  Tmax: 0.5 h
[2]; 50 mg/kg, oral 50 mg/kg
  CL/F: 282 mL/min/kg
[2]; 50 mg/kg, oral 50 mg/kg, read-out: Tmax
  Tmax: 0.5 h
[2]; 50 mg/kg, single oral administration 12.5, 25 and 50 mg/kg, read-out: Tmax (time of peak blood concentration)
  Tmax: 0.5 h
[2]; glytrexate 2 mg/kg vs pemetrexed 10 mg/kg
  intravenous AUC of glytrexate relative to pemetrexed: approximately 1.63 fold
[2]; intravenous
  intravenous T1/2 of glytrexate relative to pemetrexed: approximately 5 fold
[2]; oral 12.5 mg/kg, 12.5 mg/kg
  Cl/F: 564.8 ± 42.8 mL/min/kg
  V/F: 104.724 ± 6.709 L/kg and 104.72 ± 6.71 L/kg
[2]; oral 25 mg/kg, 25 mg/kg
  Cl/F: 556.2 ± 22 mL/min/kg
  V/F: 108.42 ± 7.698 L/kg and 108.42 ± 7.70 L/kg
[2]; oral 50 mg/kg, 50 mg/kg
  V/F: 64.832 ± 4.529 L/kg and 64.83 ± 4.53 L/kg
[2]; single i.v. injection 2 mg/kg
  time of highest plasma concentration: 0.03 h
[3]; [4]
  % Deviation after storage: −11.50%
  Mean measured concentration after storage: 4.43 ± 0.21 ng/mL
[3]; [5]
  % Deviation after storage: −2.11%
  Mean measured concentration after storage: 1566.21 ± 100.13 ng/mL
[3]; [6]
  % Deviation after storage: −10.23%
  Mean measured concentration after storage: 4.49 ± 0.40 ng/mL
[3]; [7]
  % Deviation after storage: −0.82%
  Mean measured concentration after storage: 1586.82 ± 103.89 ng/mL
[3]; [8]
  % Deviation after storage: −2.27%
  Mean measured concentration after storage: 4.89 ± 0.68 ng/mL
[3]; [9]
  % Deviation after storage: −1.81%
  Mean measured concentration after storage: 1571.07 ± 105.54 ng/mL
[3]; [10]
  % Deviation after storage: −6.40%
  Mean measured concentration after storage: 4.68 ± 0.40 ng/mL
[3]; [11]
  % Deviation after storage: −2.01%
  Mean measured concentration after storage: 1567.82 ± 112.14 ng/mL

Reference: PMC9577195, “Pharmacokinetics, bioavailability, and plasma protein binding study of glytrexate, a novel multitarget antifolate” (Frontiers in Pharmacology, 2022)
